Laboratory results: US20050272814A1, “Medicine for prevention or treatment of diabetes” (priority 2004, published 2005)

Test system: C57BL/KsJdb/db mice
Test: Hypoglycemic effect of single or combined administration in db/db mice (plasma glucose on day 14)
Format: in vivo, mouse
Settings: for Decreasing rate: plasma glucose decrease vs control group mean
Protocol: As test animals, C57BL/KsJdb/db mice were used, which were created in Jackson Laboratory (USA) and known as an obesity, hyperlipemia, hyperinsulinemia, and insulin-resistant model (Journal of Clinical Investigation, 85, pp 962-967, 1990). Blood was collected from the orbital venous plexus of each 7-week-old db/db mouse using a heparin-treated capillary tube, and centrifugation was performed to collect plasma. Thereafter, the plasma glucose concentration (Glucose CII-Test Wako (Wako Pure Chemical Industries, Ltd.)), the insulin concentration (Lebis Insulin Kit: for mouse-T (SHIBAYAGI)), and the triglyceride concentration (Triglyceride E-Test Wako (Wako Pure Chemical Industries, Ltd.)) were measured for classification. The classification was performed so that distribution of each measurement item is uniform for each group by block allocation based on many variables in which the plasma glucose concentration is most emphasized using the measured values of the plasma glucose concentration, the body weight, the insulin concentration, and the triglyceride concentration. […] Two hours after the administration of the medicines on the 14th day from the beginning day of the administration, blood was collected from the orbital venous plexus, and the plasma thereof was collected to measure the plasma glucose concentration. […] Each plasma glucose concentration is expressed as mean±standard deviation for 6 mice of each group. Each decreasing rate is calculated from ((mean of plasma glucose concentration of control group)−(mean of plasma glucose concentration of each group))/(mean of plasma glucose concentration of control group)×100, while each relative index is calculated from (mean of plasma glucose concentration of each group)/(mean of plasma glucose concentration of control group).

SMILES | Decreasing rate (300 mg/kg oral once a day for 14 days) [%] | Relative index (3 mg/kg oral once a day for 14 days, mean plasma glucose of group / control group) | Plasma glucose concentration (3 mg/kg oral once a day for 14 days, plasma 2 h after dosing on day 14, mean ± SD, 6 mice) [mg/dL] | Decreasing rate (3 mg/kg oral once a day for 14 days) [%] | Decreasing effect for the plasma glucose concentration (in words) (single administration 3 mg/kg, 14 days, compared with normal db/+m mouse level (187±16))
CN(C)C(=N)NC(=N)N.Cl [Metformin, 1,1-Dimethylbiguanide hydrochloride, reference compound] | 3 |  |  |  | 
O=C([O-])C(Cl)(Cl)CCCCCCCCCCc1ccc(Cl)cc1.[Na+] [sodium 2,2-dichloro-12-(4-chlorophenyl)-dodecanoate] |  | 0.89 | 241 ± 116 | 11 | insufficient
